Experimental data published in ChEMBL document CHEMBL3046419, “Nematicidal activity of anion transport blockers against Meloidogyne incognita, Caenorhabditis elegans and Heterorhabditis bacteriophora” (Pest Manag Sci, 2008).
Converted amounts (≈) assume the structure as drawn. The source made the active and inactive calls. The rule behind the calls is not given here.

Assays:
[1] = test system: Heterorhabditis bacteriophora; assay: Nematicidal activity against J3 juveniles of Heterorhabditis bacteriophora assessed as mortality at 200 mg/l after 168 hr relative to control; type: functional
Caenorhabditis elegans [2] = assay: Inhibition of […] in Caenorhabditis elegans N2 Bristol assessed as increase in pharyngeal musle contraction frequency at 50 mg/l after 6 hr relative to control; type: functional, organism-based
Caenorhabditis elegans [3] = assay: Inhibition of […] in Caenorhabditis elegans N2 Bristol assessed as increase in pharyngeal musle contraction frequency at 50 mg/l after 1 hr relative to control; type: functional
Meloidogyne incognita [4] = assay: Ovicidal activity against Meloidogyne incognita (root-knot nematode) eggs after 168 hr; type: functional, organism-based
Meloidogyne incognita [5] = assay: Ovicidal activity against Meloidogyne incognita (root-knot nematode) eggs after 120 hr; type: functional, organism-based
Meloidogyne incognita [6] = assay: Ovicidal activity against Meloidogyne incognita (root-knot nematode) eggs assessed as inhibition of egg hatching at 40 mg/l after 120 hr relative to control; type: functional
Meloidogyne incognita [7] = assay: Ovicidal activity against Meloidogyne incognita (root-knot nematode) eggs assessed as inhibition of egg hatching at 40 mg/l after 24 to 72 hr relative to control; type: functional; conditions: read-out: mortality
Meloidogyne incognita [8] = assay: Nematicidal activity against J2 juveniles of Meloidogyne incognita (root-knot nematode) after 168 hr relative to control; type: functional
Meloidogyne incognita [9] = assay: Nematicidal activity against J2 juveniles of Meloidogyne incognita (root-knot nematode) after 120 hr relative to control; type: functional
Meloidogyne incognita [10] = assay: Nematicidal activity against J2 juveniles of Meloidogyne incognita (root-knot nematode) after 72 hr relative to control; type: functional
Meloidogyne incognita [11] = assay: Nematicidal activity against J2 juveniles of Meloidogyne incognita (root-knot nematode) assessed as mortality at 40 mg/l after 48 hr relative to control; type: functional
Caenorhabditis elegans [12] = assay: Nematicidal activity against adult Caenorhabditis elegans N2 Bristol after 168 hr; type: functional
Caenorhabditis elegans [13] = assay: Nematicidal activity against adult Caenorhabditis elegans N2 Bristol after 120 hr; type: functional
Caenorhabditis elegans [14] = assay: Nematicidal activity against adult Caenorhabditis elegans N2 Bristol after 48 hr; type: functional
Caenorhabditis elegans [15] = assay: Nematicidal activity against adult Caenorhabditis elegans N2 Bristol after 72 hr; type: functional
Caenorhabditis elegans [16] = assay: Nematicidal activity against adult Caenorhabditis elegans N2 Bristol assessed as mortality at 40 mg/l after 24 hr relative to control; type: functional
Caenorhabditis elegans [17] = assay: Nematicidal activity against adult Caenorhabditis elegans N2 Bristol assessed as mortality at 40 mg/l after 120 hr relative to control; type: functional
Caenorhabditis elegans [18] = assay: Nematicidal activity against adult Caenorhabditis elegans N2 Bristol assessed as mortality at 40 mg/l after 48 hr relative to control; type: functional
[19] = test system: Bursaphelenchus xylophilus; assay: Nematicidal activity against Bursaphelenchus xylophilus assessed as mortality at 1 mg/l after 48 hr relative to control; type: functional
[20] = molecular target: T1, Chloride channel protein clh-3 (Caenorhabditis elegans) (UniProt Q9BMK9); conditions: 100 uM
T1 sequence (whole entry): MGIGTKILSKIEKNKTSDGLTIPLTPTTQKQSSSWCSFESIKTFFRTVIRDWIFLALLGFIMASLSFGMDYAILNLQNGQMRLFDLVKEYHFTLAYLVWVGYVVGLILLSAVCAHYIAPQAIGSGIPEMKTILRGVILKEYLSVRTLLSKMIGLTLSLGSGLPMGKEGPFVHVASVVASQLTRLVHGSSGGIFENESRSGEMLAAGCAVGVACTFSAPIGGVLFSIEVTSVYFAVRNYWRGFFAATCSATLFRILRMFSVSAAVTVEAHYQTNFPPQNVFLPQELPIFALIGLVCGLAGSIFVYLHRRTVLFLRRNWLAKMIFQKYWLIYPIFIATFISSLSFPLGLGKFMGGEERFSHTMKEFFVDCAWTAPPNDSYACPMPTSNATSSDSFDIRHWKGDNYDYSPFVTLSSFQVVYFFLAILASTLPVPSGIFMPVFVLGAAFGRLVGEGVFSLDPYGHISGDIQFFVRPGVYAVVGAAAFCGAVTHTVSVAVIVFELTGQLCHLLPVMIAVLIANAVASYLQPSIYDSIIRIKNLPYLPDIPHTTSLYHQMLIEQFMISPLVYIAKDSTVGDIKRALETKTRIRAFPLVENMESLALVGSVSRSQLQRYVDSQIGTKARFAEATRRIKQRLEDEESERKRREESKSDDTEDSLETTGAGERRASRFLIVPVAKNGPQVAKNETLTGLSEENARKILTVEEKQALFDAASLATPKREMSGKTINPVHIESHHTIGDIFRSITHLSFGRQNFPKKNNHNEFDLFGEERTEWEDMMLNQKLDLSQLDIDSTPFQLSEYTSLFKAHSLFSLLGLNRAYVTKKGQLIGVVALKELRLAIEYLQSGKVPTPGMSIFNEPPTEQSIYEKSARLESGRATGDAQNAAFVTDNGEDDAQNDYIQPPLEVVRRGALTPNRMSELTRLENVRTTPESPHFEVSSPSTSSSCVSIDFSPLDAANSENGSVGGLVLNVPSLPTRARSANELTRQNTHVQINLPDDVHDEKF
Description: Inhibition of CECLC-3 in Caenorhabditis elegans oocyte membrane at 100 uM

[21] = test system: Heterorhabditis bacteriophora; assay: Nematicidal activity against J3 juveniles of Heterorhabditis bacteriophora assessed as mortality at 200 mg/l after 24 hr relative to control; type: functional
[22] = test system: Heterorhabditis bacteriophora; assay: Nematicidal activity against J3 juveniles of Heterorhabditis bacteriophora assessed as mortality at < 200 mg/l; type: functional, organism-based
Caenorhabditis elegans [23] = assay: Nematicidal activity against adult Caenorhabditis elegans after 24 hr; type: functional
Caenorhabditis elegans [24] = assay: Nematicidal activity against J4 juvenile of Caenorhabditis elegans after 24 hr; type: functional

Row | Structure (SMILES) | mortality at 200 µg/mL [1] [%] | inhibition (Caenorhabditis elegans [2]) | inhibition at 50 µg/mL (Caenorhabditis elegans [3]) [%] | EC50 (Meloidogyne incognita [4]) [mg/L] | inhibition at 40 µg/mL (Meloidogyne incognita [6]) [%] | inhibition of egg hatching at 40 µg/mL (Meloidogyne incognita [7]) [%] | LC50 (Meloidogyne incognita [8]) [mg/L] | LC50 (Meloidogyne incognita [9]) [mg/L] | LC50 (Meloidogyne incognita [10]) [mg/L] | mortality at 40 µg/mL (Meloidogyne incognita [11]) [%] | LC50 (Caenorhabditis elegans [12]) [mg/L] | LC50 (Caenorhabditis elegans [13]) [mg/L] | LC50 (Caenorhabditis elegans [14]) [mg/L] | LC50 (Caenorhabditis elegans [15]) [mg/L] | mortality at 40 µg/mL (Caenorhabditis elegans [16]) [%] | mortality at 40 µg/mL (Caenorhabditis elegans [17]) [%] | mortality at 40 µg/mL (Caenorhabditis elegans [18]) [%] | further results
1 | O=S(=O)(O)c1cc(N=C=S)ccc1/C=C/c1ccc(N=C=S)cc1S(=O)(=O)O | < 15 | inactive | 20 | 23.4 (≈ 51.6 µM) | 50 | < 50 | 4.46 (≈ 9.81 µM) | 7.48 (≈ 16.5 µM) | 15.4 (≈ 33.8 µM) | < 50 | 3.14 (≈ 6.91 µM) | 4.46 (≈ 9.81 µM) | 29.6 (≈ 65.2 µM) | 8.9 (≈ 19.6 µM) | < 50 | 100 | > 50 | EC50 (Meloidogyne incognita [5]): 29.1 mg/L (≈ 64.1 µM)
2 | COc1ccc(/C=C/c2ccccc2O)cc1 [2-hydroxy-4'-methoxystilbene] |  |  |  |  |  |  |  |  |  |  |  |  |  |  |  |  |  | mortality at 1 µg/mL [19]: 95%
3 | O=C(O)c1cc([N+](=O)[O-])ccc1NCCCc1ccccc1 [5-NITRO-2-PHENYLPROPYLAMINOBENZOIC ACID [NPPB]] | < 15 | inactive | 20 | 34.1 (≈ 113 µM) | 50 | < 50 | 5.27 (≈ 17.5 µM) | 8.09 (≈ 26.9 µM) | 20.1 (≈ 66.9 µM) | < 50 | 4.56 (≈ 15.2 µM) | 7.44 (≈ 24.8 µM) | 38.4 (≈ 128 µM) | 15.9 (≈ 52.8 µM) | < 50 | 100 | > 50 | EC50 (Meloidogyne incognita [5]): 46.5 mg/L (≈ 155 µM); inhibition [20]: 90%
4 | O=C(O)c1c2ccccc2cc2ccccc12 [ANTHRACENE-9-CARBOXYLIC ACID] | < 15 | inactive | 20 | 48 (≈ 216 µM) | < 50 | < 50 | 6.27 (≈ 28.2 µM) | 11.2 (≈ 50.6 µM) | 26.8 (≈ 120 µM) | < 50 | 5.35 (≈ 24.1 µM) | 8.44 (≈ 38 µM) | 42.7 (≈ 192 µM) | 17.8 (≈ 80 µM) | < 50 | 100 | 45 | 
5 | CCOP(=S)(OCC)Oc1nc(Cl)c(Cl)cc1Cl [CHLORPYRIFOS] | < 15 |  |  |  |  |  |  |  |  |  |  |  |  |  |  |  |  | mortality at 200 µg/mL [21]: 100%; Activity [22]: Active
6 | C[C@@]1(C2CCCC2)Cc2cc(OCCC(=O)O)c(Cl)c(Cl)c2C1=O [INDANYLOXYACETIC ACID] |  | inactive |  |  |  |  |  |  |  |  |  |  |  |  |  |  |  | 
7 | CC(C)c1c(O)cc(/C=C/c2ccccc2)cc1O [TAPINAROF] |  |  |  |  |  |  |  |  |  |  |  |  |  |  |  |  |  | LC50 (Caenorhabditis elegans [23]): 50 mg/L (≈ 197 µM); LC50 (Caenorhabditis elegans [24]): 50 mg/L (≈ 197 µM)
